Where a name gives a salt, the structure may show the parent alone.

The values that follow come from patent publication US20240059729A1, “MULTIFUNCTIONAL CYCLIC DINUCLEOTIDE AND USE THEREOF” (TYLIGAND BIOSCIENCE (SHANGHAI) LIMITED, priority 2020, published 2024).

This experiment concerns IFN-β secretion by THP-1 cells. Briefly: Activation of IFN-β secretion by THP-1 cells (Human IFN-beta ELISA). In kind it is cell-based. To be noted: for EC50 / Activating effect on IFN-β secretion / STING agonist activity (in words): THP-1 cells; for EC50: 24 hours, IFN-β ELISA; for Activating effect on IFN-β secretion / STING agonist activity (in words): EC50 compared with 2′,3′-cGAMP and ADU-S100; for Highest concentration of IFN-β secreted by stimulated THP-1 cells: compared with ADU-S100. On the procedure: THP-1 cell, a human monocytic leukemia cell line, has the STING phenotype of HAQ type, i.e., R71H-G230A-R293Q. This assay used the Human IFN-beta DuoSet ELISA Kit from R & D (R & D, Cat #DY814-05) and the DuoSet ELISA Ancillary Reagent Kit 2 (R & D, Cat #DY008) to evaluate the activation of IFN-β secretion from THP-1 cells by representative compounds of the invention.
In thawing the THP-1 cells (ATCC #TIB-202), a cell freezing tube was quickly shaken in a water bath at 37° C. to thaw the cells within 1 min. The thawed cell suspension was taken and evenly mixed with an RPMI1640 medium (Hyclone, product #SH30027.01) containing 10% FBS (Life Technology, Cat #10099-141), centrifuged for 5 min at 1000 rpm, and the supernatant was discarded. The cell pellet was resuspended in 5 mL of the complete medium (RPMI 1640 medium containing 10% FBS), placed into a cell culture flask with a bottom area of 25 cm^2, and incubated in a cell incubator at 37° C., 5% CO2 and 95% humidity. When the cell confluence reached about 80%, the cells were passaged. All the cells in the culture flask were transferred to a 15 mL centrifuge tube, centrifuged for 5 min at 1000 rpm, and the supernatant was discarded. 5 mL of fresh complete medium was added to re-suspend the cell pellet, 1 mL of which was taken to place in a cell culture flask with a bottom area of 25 cm^2, supplemented with 4 mL of fresh complete medium for further incubation. When the cell confluence reached about 80% again, plating was conducted following the procedure of cell passage, retaining 1/5 cell suspension for further inculation and remaining 4/5 of the cell suspension in a 15 mL centrifuge tube. The cell suspension was centrifuged to discard the old culture medium, washed once using RPMI1640 culture medium (serum-free), and centrifuged to remove the supernatant. The cells were then re-suspended in RPMI1640 culture medium (serum-free). Cell viability was then detected by Trypan blue exclusion test and to be used for plating when the cell viability was confirmed to be more than 95%. A cell suspension with a density of 1.1×10^6 viable cells/mL was prepared using RPMI1640 culture medium (serum-free), and 180 μL of the cell suspension was added to a 96-well cell culture plate (NUNC Company, Cat #167008) so that the cell density in the plate was 2×10^5 viable cells/well.
A 10 mM stock solution of the compounds in DMSO was first serially diluted at 3.16-fold with DMSO (Sigma, Cat #D2650) to the 5th concentration, and the 6th concentration was set as DMSO control (compound-free). Then, the DMSO solutions containing different concentrations of the compounds were diluted at 10-fold with PBS so that the DMSO content in each compound solution of various concentrations was 10%. Finally, 20 μL of each of such solutions was added into corresponding cell culture plate to provide an initial compound concentration of 100 μM, with the dilution fold of adjacent concentrations being 3.16 and the DMSO content in the cell culture plate being 1%. The cell plate was placed in a cell incubator for further 24 hours.
ELISA detection was conducted referring to the instructions from R & D System, Cat #DY814-05.
ELISA plate coating: PBS (R & D System Cat #DY006) was used to dilute the capture antibody (mouse anti-human IFN-β capture antibody PART #844508) to provide the working concentration, and 100 μL capture antibody working solution was added to a 96-well ELISA plate which was then sealed and incubated overnight at room temperature. Upon discarding the capture antibody working solution, the cell plate was washed 3 times with a washing buffer (0.05% Tween-20 in PBS, pH 7.2-7.4, R & D System Cat #WA126) at 400 μL of the washing buffer per well, and the washing buffer was thoroughly removed after each washing, with the final washing to be completely removed of the wash buffer by inverting and claping the plate to a clean piece of paper. […]

Regarding `Nc1ncnc2c1ncn2[C@@H]1O[C@@H]2COP(=O)([S-])O[C@@H]3[C@H](O)[C@@H](COP([O-])(=S)O[C@H]2[C@H]1O)O[C@H]3n1cnc2c(N)ncnc21.[Na+].[Na+]` (stereo partly shown) [ADU-S100, reference compound], the EC50 was in the range of 1 to 10 µM.

`Nc1nc2c(ncn2[C@@H]2O[C@@H]3CO[P@@](=O)(S)OC4C(F)[C@H](n5cnc6c(N)nc(Cl)nc65)O[C@@H]4CO[P@@](=O)(S)OC2C3O)c(=O)[nH]1` (stereo partly drawn) [Example 10, (2′,3′)-cyclo-(Rp,Rp)-[2′-O-phosphorothioate-diester-guanosine]-[3′-O-phosphorothioate-diester-2-chloro-2′-deoxy-2′-fluoro-beta-adenosine] diammonium salt]: the “Activating effect on IFN-β secretion / STING agonist activity (in words)” value is “significant STING agonist activity” and the “Highest concentration of IFN-β secreted by stimulated THP-1 cells” value is listed as “higher than that of ADU-S100”. Moreover, the EC50 (Homo sapiens, THP-1, 24 h) was 1 to 10 µM.

Regarding `Nc1nc2c(ncn2[C@@H]2O[C@@H]3CO[P@@](=O)(S)OC4C(F)[C@H](n5cnc6c(N)nc(Cl)nc65)O[C@@H]4CO[P@@](=O)(S)OC3C2O)c(=O)[nH]1` (stereo partly shown) [Example 17, diammonium salt], the “Activating effect on IFN-β secretion / STING agonist activity (in words)” value is “significant STING agonist activity” and the “Highest concentration of IFN-β secreted by stimulated THP-1 cells” value was “higher than that of ADU-S100”. The EC50 (Homo sapiens, THP-1, 24 h) is 1 to 10 µM.
